Results from US20230271953A1, “Novel compounds for treatment of diseases related to DUX4 expression” (Facio Intellectual Property B.V., priority 2019, published 2023).

The compounds below were run on DUX4 (assay: DUX4 repression assay in primary FSHD cells (protocol of Example 2 of WO2019/115711)). Settings: incubated 72 hours, Table 2.3 (additional results), binned.
Type: cell-based, human
Description: The DUX4 repression of compounds of general formula (I) was assayed following a known protocol (the protocol of Example 2 of WO2019/115711). Several compounds were incubated with primary FSHD cells for 72 hours. Results are shown in Table 2.2, showing DUX4 Count % inhibition.

Structure (SMILES)	DUX4 Count % inhibition
OC1CN(c2ccc3nc(-c4ccc(F)cc4)n(-c4ccncc4)c3n2)C1 [Compound 98, 1-[2-(4-fluorophenyl)-3-(pyridin-4-yl)-3H-imidazo[4,5-b]pyridin-5-yl]azetidin-3-ol]	fall outside of the bins
Fc1ccc(-c2nc3ccc(N4CC(N5CCCC5)C4)nc3n2-c2ccncc2)cc1 [Compound 106, 4-[2-(4-fluorophenyl)-5-[3-(pyrrolidin-1-yl)azetidin-1-yl]-3H-imidazo[4,5-b]pyridin-3-yl]pyridine]	fall outside of the bins
C[C@@H]1CNCCN1c1ccc2nc(-c3cccc(C#N)c3)n(-c3ccncc3)c2n1 [Compound 188-R, 3-{5-[(2R)-2-methylpiperazin-1-yl]-3-(pyridin-4-yl)-3H-imidazo[4,5-b]pyridin-2-yl}benzonitrile]	fall outside of the bins
